# Assay results reported in article PMC3448056, “2-Benzamido-N-(1H-benzo[d]imidazol-2-yl)thiazole-4-carboxamide derivatives as potent inhibitors of CK1δ/ε” (Amino Acids, 2012).
# Where two headings read alike, the source gives them in different places.
# Columns and labels:
# [1] = biological target: T1, GST-mouse CK1δTV2 (Mus musculus, UniProt Q9DC28); test: In vitro kinase assay, GST-mouse CK1δTV2; format: biochemical
# T1 construct: made in house; host or cells: bacteria (pGEX-2T)
# T1 sequence (Q9DC28 1-409 isoform Q9DC28-2): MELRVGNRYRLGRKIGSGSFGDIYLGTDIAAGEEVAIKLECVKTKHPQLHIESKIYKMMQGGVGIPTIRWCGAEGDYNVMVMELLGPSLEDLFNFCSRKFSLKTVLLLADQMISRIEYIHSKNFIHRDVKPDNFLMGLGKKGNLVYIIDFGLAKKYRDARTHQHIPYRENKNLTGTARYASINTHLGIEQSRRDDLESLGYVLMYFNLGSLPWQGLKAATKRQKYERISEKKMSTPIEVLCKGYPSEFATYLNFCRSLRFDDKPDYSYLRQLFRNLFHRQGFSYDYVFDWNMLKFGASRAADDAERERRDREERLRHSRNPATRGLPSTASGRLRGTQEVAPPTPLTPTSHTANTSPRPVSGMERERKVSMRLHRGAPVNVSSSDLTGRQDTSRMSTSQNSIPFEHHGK
# Source text: CK1δTV1 and 2 (transcription variants 1 and 2) were PCR amplified from mouse cDNA (5′-primer TV1 and 2: 5′-[…]-3′, 3′-primer TV1: 5′-[…]-3′, 3′-primer TV2: 5′-[…]-3′) and cloned into pcDNA3.1/V5-His© TOPO® TA cloning vector (Invitrogen, Karlsruhe, Germany) before being subcloned into pGEX-2T expression vector via BamHI to generate plasmids pGEX-2T-mouse CK1δTV1 (FP1170) and pGEX-2T-mouse CK1δTV2 (FP1171).
# (§1) Expression and purification of the GST-fusion proteins GST-mouse p53^1–64 (FP267), GST-rat CK1δ (FP449), GST-rat CK1δ^M82F (FP1153), GST-mouse CK1δTV1 (FP1170), and GST-mouse CK1δTV2 (FP1171) was carried out as described elsewhere (Wolff et al. [2005]). Expression of fusion proteins FP1170 and 1171 was either performed at 37°C for 2 h, or at 15°C for 14 h. FP449 and FP1153 were always expressed at 15°C for 14 h.
# (§2) In vitro kinase assays were carried out in the presence of various potential inhibitors of CK1δ at an ATP concentration of 0.01 mM and dimethyl sulfoxide (DMSO) solvent control as described previously (Knippschild et al. [1996]). Where indicated higher ATP concentrations (0.05, 0.1, 0.25 and 0.5 mM) were used. The fusion protein GST-mouse p53^1−64 (FP267) was used as substrate. Recombinant CK1δ kinase domain (CK1δkd, NEB, Frankfurt am Main, Germany), GST-rat CK1δ (FP449), GST-rat CK1δ^M82F (FP1153), GST-mouse CK1δTV1, GST-mouse CK1δTV2 and recombinant human CK1ε (Invitrogen, Karlsruhe, Germany) were used as sources of enzyme. Phosphorylated proteins were separated by SDS-PAGE and the protein bands were visualized on dried gels by autoradiography. The phosphorylated protein bands were excised and quantified by Cherenkov counting.
# [2] = biological target: T2, GST-rat CK1δ^M82F (Rattus norvegicus, UniProt Q06486, M82F); test: In vitro kinase assay, gatekeeper mutant; format: biochemical; conditions: inhibitor at its determined IC50 concentration (Fig. 7)
# T2 construct: made in house; host or cells: bacteria (pGEX-2T)
# T2 sequence (Q06486 1-415 M82F): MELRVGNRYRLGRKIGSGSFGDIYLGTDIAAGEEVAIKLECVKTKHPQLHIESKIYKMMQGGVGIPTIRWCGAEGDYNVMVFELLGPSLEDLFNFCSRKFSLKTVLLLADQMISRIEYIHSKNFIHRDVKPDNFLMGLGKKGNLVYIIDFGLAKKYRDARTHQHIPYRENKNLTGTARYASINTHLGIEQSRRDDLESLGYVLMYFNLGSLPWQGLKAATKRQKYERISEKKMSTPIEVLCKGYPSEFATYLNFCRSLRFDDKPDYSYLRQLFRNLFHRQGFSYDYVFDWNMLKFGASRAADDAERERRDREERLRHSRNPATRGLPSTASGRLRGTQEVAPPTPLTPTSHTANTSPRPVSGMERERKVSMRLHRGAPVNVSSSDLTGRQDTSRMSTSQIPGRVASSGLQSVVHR
# Experimental: For the expression of wt rat CK1δ and rat CK1δ^M82F as glutathione S-transferase fusion proteins the plasmids pGEX-2T-CK1δ (FP449) (Knippschild et al. [1997]) and pGEX-2T-CK1δ^M82F (FP1153) (Peifer et al. [2009]) were used.
# as §1, §2
# Previously it has been shown that methionine 82 plays an important role as gatekeeper residue in the docking mode of isoxazoles to the ATP binding pocket since mutation of methionine 82 to phenylalanine blocks binding of this class of CK1δ specific inhibitors (Peifer et al. [2009]) while still binding ATP. Therefore, we now analyzed the effects of exchanging methionine 82 to phenylalanine on the ability of compounds 4, 5 and 6 to inhibit CK1δ activity.
# [3] = tested on: Frwt648 cells; test: Flow cytometry cell cycle analysis; format: cell-based; conditions: Frwt648, 2 and 4 μM, 48 h; range stated jointly for Frwt648 and mKSA and compounds 5 and 6
# Experimental: (§3) Frwt648 cells [generated by SV40-transformation of F111 cells; (Hinzpeter and Deppert [1987])] and mKSA cells [SV40-transformed Balb/c fibroblasts; (Kit et al. [1969])] were grown in Dulbecco’s modified Eagle’s medium (DMEM) supplemented with 5% fetal calf serum (FCS; Biochrom, Berlin, Germany). The fibrosarcoma cell line HT1080 (Rasheed et al. [1974]) was grown in DMEM containing 10% FCS and 2 mM glutamine while both the prostate cancer cell line DU-145 (Stone et al. [1978]) and the ovary tissue cancer cell line OVCAR-3 (Hamilton et al. [1983]) were maintained in RPMI-1640 supplemented with 10% FCS. The pancreatic cancer cell line Colo357 (Morgan et al. [1980]) was grown in DMEM/RPMI (1:1) and the colon adenocarcinoma cell line SW480 (Leibovitz et al. [1976]) in Leibovitz L-15 medium, both containing 10% FCS and 2 mM glutamine. All media were supplemented with 100 U/ml penicillin and 100 μg/ml streptomycin (Gibco, Karlsruhe, Germany) and all cell lines were grown at 37°C in a humidified 5% carbon dioxide atmosphere.
# (§4) Subconfluent Frwt648, mKSA, Colo357, OVCAR-3, HT1080, DU-145 and SW480 cells were treated with 2 or 4 μM of compounds 5 or 6 for 48 h. Untreated and DMSO treated cells served as control. Cells were harvested, washed once with phosphate-buffered saline (PBS), and prepared for cell cycle analysis using the “Cycle Test Plus Kit” (BD, San Jose, USA). […]
# [4] = tested on: mKSA cells; test: Flow cytometry cell cycle analysis; format: cell-based, mouse; conditions: 2 and 4 μM, 48 h, range stated jointly for Frwt648 and mKSA and compounds 5 and 6
# Experimental: as §3, §4
# [5] = 0.01 mM ATP, substrate GST-mouse p53^1-64, mean ± SD, read-out: IC50 (μM) GST-CK1δ TV2
"IC50 [1, 5]",kinase activity of GST-CK1δ^M82F in comparison with inhibition of GST-wt CK1δ [2],"IC50 ([1]; IC50 CK1δTV2, 2 h, enzyme induced for 2 h at 37°C)","IC50 ([1]; enzyme induced for 14 h at 15°C, read-out: IC50 CK1δTV2, 14 h)",Compound,dead cells [3],dead cells [4]
0.055 ± 0.02 µM,similarly or even less affected,,,"O=C(Nc1nc2cc(Cl)c(F)cc2[nH]1)c1csc(NC(=O)c2ccccc2OC(F)(F)F)n1 [Compound 6, N-(5-Chloro-6-fluoro-1H-benzo[d]imidazol-2-yl)-2-(2-(trifluoromethoxy)benzamido)thiazole-4-carboxamide]",35–98%,35–98%
0.042 ± 0.02 µM,much more affected,0.064 µM,0.043 µM,"O=C(Nc1nc2ccc(C(F)(F)F)cc2[nH]1)c1csc(NC(=O)c2ccccc2OC(F)(F)F)n1 [Compound 5, 2-(2-(Trifluoromethoxy)benzamido)-N-(6-(trifluoromethyl)-1H-benzo[d]imidazol-2-yl)thiazole-4-carboxamide]",35–98%,35–98%
